This note sets out measurements from US10375956B2, “Herbicidally active 2-(substituted-phenyl)-cyclopentane-1,3-dione compounds and derivatives thereof” (Syngenta Limited, priority 2013, dated 2019).

What all share (format): in vivo
The test system of experiment [1] is Sorghum vulgare Pers. (SORVU). The experiment in a line: Test 2 glasshouse assay (IF50 formulation, X-77), pre-emergence herbicidal activity. The following applies: Sorghum bicolor, 480 h, 250 g/ha, 20DAA, read-out: Percentage phytotoxicity SORVU. As for the experimental part: (§1) Seeds of a variety of monocotyledonous and dicotyledonous test plants are sown in standard soil in pots. The plants are cultivated for one day (for pre-emergence) or for about 12 days (for post-emergence) under controlled conditions in a glasshouse (warm climate species at 24/18° C., cool climate species at 20/16° C., both at day/night; 16 hours light; 65% humidity).
(§2) An “instant formulation”, known as the “IF50”, containing 50 g/liter (i.e. 5% w/v) of the “technical” (i.e. unformulated) active ingredient is prepared by dissolving the active ingredient in a mixture of organic solvents and emulsifier, details of which are provided in the Table below. This IF50 is then mixed with a small, variable amount of acetone to aid dissolution, before addition of a 0.2% v/v aqueous solution of the adjuvant X-77 (which is a mixture of alkyl aryl polyoxyethylene glycols and free fatty acids in isopropanol, CAS Registry number 11097-66-8), as the aqueous diluent, to form an aqueous spray solution which contains a predetermined concentration of the active ingredient (which varies depending on the application rate of the active ingredient to the plants) and 0.2% v/v of the adjuvant X-77. This aqueous spray solution is then sprayed onto the plants, after one day's cultivation (for pre-emergence), or after about 12 days' cultivation (range=10-13 days) (for post-emergence).
(§3) The test plants are then grown on, in a glasshouse (greenhouse) under controlled conditions (warm climate species at 24/18° C., cool climate species at 20/16° C., both at day/night; 16 hours light; 65% humidity) and are watered twice daily. 15 days after application of the test herbicide (15DAA) (for post-emergence), and 20 days after application of the test herbicide (20DAA) (for pre-emergence), the test plants are evaluated visually, and an assessed percentage phytotoxicity score is given for each herbicidal application on each plant species (with 100%=total damage to plant; 0%=no damage to plant).
(§4) Warm climate (“warm season”) grassy monocotyledonous weeds: Setaria faberi (SETFA), Panicum miliaceum (PANMI), Sorghum vulgare Pers. (SORVU) (or Sorghum bicolor (L) Moench ssp. Bicolor), Digitaria sanguinalis (DIGSA), Echinochloa crus-galli (ECHCG), and Brachiaria plantaginea (BRAPL).

Experiment [2] deals with Panicum miliaceum (PANMI). The description is as above. The following applies: 480 h, 250 g/ha, 20DAA, read-out: Percentage phytotoxicity PANMI. How it is done: as §1, §2, §3, §4
For experiment [3], the system named is Digitaria sanguinalis (DIGSA). Described as above. The following applies: 480 h, 250 g/ha, 20DAA, read-out: Percentage phytotoxicity DIGSA. How it is done: as §1, §2, §3, §4
Another experiment relates to Setaria faberi (SETFA). The description is as above. The following applies: 480 h, 250 g/ha, 20DAA, read-out: Percentage phytotoxicity SETFA. As for the experimental part:
as §1, §2, §3, §4

In experiment [4] the test system is Echinochloa crus-galli (ECHCG). Described as above. The following applies: 480 h, 250 g/ha, 20DAA, read-out: Percentage phytotoxicity ECHCG. How it is done:
as §1, §2, §3, §4

For a further experiment, the system named is Lolium perenne (LOLPE). The experiment is described as above. The following applies: 480 h, 250 g/ha, 20DAA, read-out: Percentage phytotoxicity LOLPE. How it is done:
as §1, §2, §3
Cool climate (“cool season”) grassy monocotyledonous weeds: Alopecurus myosuroides (ALOMY), Avena fatua (AVEFA), Lolium perenne (LOLPE).

Experiment [5] has as its system Alopecurus myosuroides (ALOMY). The experiment in a line: Test 1 glasshouse assay, post-emergence herbicidal activity. The following applies: 312 h, after 13 days, read-out: Percentage phytotoxicity ALOMY. As for the experimental part: (§5) Seeds of a variety of test species are sown in standard soil in pots. After cultivation for one day (pre-emergence) or after 8 days cultivation (post-emergence) under controlled conditions in a glasshouse (at 24/16° C., day/night; 14 hours light; 65% humidity), the plants are sprayed with an aqueous spray solution derived from the formulation of the “technical” (i.e. unformulated) active ingredient in acetone/water (50:50) solution containing 0.5% Tween 20 (polyoxyethylene sorbitan monolaurate, CAS Registry Number 9005-64-5). The test plants are then grown on under controlled conditions in a glasshouse (at 24/16° C., day/night; 14 hours light; 65% humidity) and watered twice daily. After 13 days for pre- or post-emergence, the test is evaluated visually, and an assessed percentage phytotoxicity score is given for each herbicidal application on each plant species (where 100%=total damage to plant; 0%=no damage to plant).
(§6) Test plants include the following: Abutilon theophrasti (ABUTH) and Amaranthus retroflexus (AMARE); these are all dicotyledonous (broadleaved) weeds. Setaria faberi (SETFA), Alopecurus myosuroides (ALOMY), and Echinochloa crus-galli (ECHCG); these are all grassy monocotyledonous weeds. Also: Zea mays (ZEAMX, corn/maize), which can be a grassy weed (“volunteer” corn) in some circumstances.
(§7) Lolium perenne (LOLPE), Alopecurus myosuroides (ALOMY), Echinochloa crus-galli (ECHCG), and Avena fatua (AVEFA); these are all grassy monocotyledonous weeds. Cool climate crop plant: Triticum aestivum (TRZAW, winter wheat).

Experiment [6] has as its system Echinochloa crus-galli (ECHCG). The experiment is described as above. The following applies: 312 h, after 13 days, read-out: Percentage phytotoxicity ECHCG. How it is done: as §5, §6, §7
The subject of experiment [7] is Abutilon theophrasti (ABUTH). The experiment in a line: Test 1 glasshouse assay, pre-emergence herbicidal activity. The following applies: 312 h, visual evaluation after 13 days, read-out: Percentage phytotoxicity ABUTH. How it is done: as §5
(§8) Test plants include the following: Abutilon theophrasti (ABUTH), Amaranthus retroflexus (AMARE): these are dicotyledonous (broadleaved) weeds. Setaria faberi (SETFA), Alopecurus myosuroides (ALOMY), Echinochloa crus-galli (ECHCG): these are grassy monocotyledonous weeds. Also: Zea mays (ZEAMX, corn/maize), which can be a grassy weed (“volunteer” corn) in some circumstances.

Experiment [8] has as its system Alopecurus myosuroides (ALOMY). The experiment is described as above. The following applies: 312 h, visual evaluation after 13 days, read-out: Percentage phytotoxicity ALOMY. As for the experimental part: as §5, §8
In experiment [9] the test system is Amaranthus retroflexus (AMARE). The experiment is described as above. The following applies: 312 h, visual evaluation after 13 days, read-out: Percentage phytotoxicity AMARE. How it is done: as §5, §8
Experiment [10] relates to Echinochloa crus-galli (ECHCG). The description is as above. The following applies: 312 h, visual evaluation after 13 days, read-out: Percentage phytotoxicity ECHCG. How it is done: as §5, §8
[11] abbreviates: post-emergence (Example 1B Table 1).
Setting [12] is: post-emergence (Example 1B Table 2).

Turning to `C#CCC1CC(=O)C(c2c(F)cc(-c3ccc(Cl)cc3)cc2Cl)C1=O` (centres unmarked) [Compound A6, 2-[2-chloro-4-(4-chlorophenyl)-6-fluorophenyl]-4-prop-2-ynylcyclopentane-1,3-dione], the pest or weed control at 250 g/ha in experiment [1] was found to be 40%; in experiment [2], 0%; in experiment [3] it was 20%; in the experiment on Setaria faberi (SETFA), 0%; in experiment [4], 50%; in the experiment on Lolium perenne (LOLPE), 30%. The pest or weed control at 250 g/ha is 100% in experiment [5] (setting [11]); 100% in experiment [5] (setting [12]); 100% in experiment [6] (setting [11]); 100% in experiment [6] (setting [12]); 40% in [7]; 90% in experiment [8]. In addition, the figures for the pest or weed control at 250 g/ha in experiment [9] and in experiment [10] were 90% and 100%, respectively. Besides, the pest or weed control at 30 g/ha in experiment [5] (setting [11]) was 80%; in [6] (setting [11]) it was 100%.

In the case of `C#CCC1CC(=O)C(c2c(F)cc(-c3ccc(Cl)cn3)cc2Cl)C1=O` (centres unmarked) [Compound A8], the pest or weed control at 250 g/ha was 80% in experiment [1]; 90% in [2]; 80% in experiment [3]; 70% with Setaria faberi (SETFA); 60% in [4]; 80% in the experiment on Lolium perenne (LOLPE). Also, the pest or weed control at 250 g/ha worked out at 100% in [5] (setting [11]); 100% in experiment [5] (setting [12]); 100% in [6] (setting [11]); 100% in experiment [6] (setting [12]); 0% in [7]; 90% in [8]. Further, the results for the pest or weed control at 250 g/ha in experiment [9] and in experiment [10] were 90% and 100%, respectively. Besides, the pest or weed control at 30 g/ha in experiment [5] (setting [11]) and in experiment [6] (setting [11]) was 100% throughout. The results for the pest or weed control at 62.5 g/ha in experiment [5] (setting [12]) and in experiment [6] (setting [12]) were 80% and 100%, respectively.

For the molecule `C#CCC1CC(=O)C(c2cc(-c3ccc(Cl)cc3Cl)ccc2C)C1=O` (centres unmarked) [Compound A15], the pest or weed control at 250 g/ha in experiment [1] was 30%; in experiment [2], 20%; in [3], 50%; in the experiment on Setaria faberi (SETFA) it was 20%; in experiment [4] it was 10%; with Lolium perenne (LOLPE), 0%. The pest or weed control at 250 g/ha in [5] (setting [11]) came out at 10%; in experiment [6] (setting [11]) it was 70%.

Turning to `C#CCC1CC(=O)C(c2cc(-c3ncc(Cl)cc3F)ccc2C)C1=O` (centres unmarked) [Compound A18], the pest or weed control at 30 g/ha in [5] (setting [11]) was 10%; in [6] (setting [11]) it was 60%. The pest or weed control at 250 g/ha in experiment [5] (setting [11]) turned out to be 70%; in experiment [6] (setting [11]), 80%; in experiment [7] it was 20%; in experiment [8] it was 60%; in experiment [9], 40%; in experiment [10], 60%.

Regarding `C#CCC1CC(=O)C(c2cc(-c3ncc(Cl)cn3)ccc2C)C1=O` (centres unmarked) [Compound A19], the pest or weed control at 30 g/ha in experiment [5] (setting [11]) worked out at 10%; in experiment [6] (setting [11]) it was 70%. Moreover, the pest or weed control at 250 g/ha turned out to be 60% in experiment [5] (setting [11]); 90% in experiment [6] (setting [11]); 40% in experiment [7]; 60% in experiment [8]; 40% in [9]; 50% in [10].

Regarding `C#CCC1CC(=O)C(c2c(F)cc(-c3ccc(F)cc3)cc2OC)C1=O` (centres unmarked) [Compound A20, 2-[2-fluoro-4-(4-fluorophenyl)-6-methoxyphenyl]-4-prop-2-ynylcyclopentane-1,3-dione], the pest or weed control at 30 g/ha in experiment [5] (setting [11]) stood at 50%; in experiment [6] (setting [11]), 80%. For the same molecule, the pest or weed control at 250 g/ha in [5] (setting [11]) was found to be 100%; in experiment [6] (setting [11]), 100%; in experiment [7] it was 70%; in [8] it was 90%; in [9], 70%; in [10], 100%.

Regarding `C#CCC1CC(=O)C(c2c(F)cc(-c3ccc(F)cc3F)cc2OC)C1=O` (centres unmarked) [Compound A21], the pest or weed control at 30 g/ha in experiment [5] (setting [11]) was 40%; in experiment [6] (setting [11]) it was 90%. Moreover, the pest or weed control at 250 g/ha is 70% in experiment [5] (setting [11]); 100% in experiment [6] (setting [11]); 10% in [7]; 80% in experiment [8]; 0% in experiment [9]; 90% in [10].

Take `C#CCC1CC(=O)C(c2c(C)cc(C)cc2C)C1=O` (centres unmarked) [Compound A23]: the pest or weed control at 250 g/ha stood at 70% in [1]; 100% in [2]; 90% in [3]; 90% with Setaria faberi (SETFA); 100% in experiment [4]; 100% with Lolium perenne (LOLPE). Besides, the pest or weed control at 250 g/ha in experiment [5] (setting [12]), in [6] (setting [12]), in experiment [8] and in [10] was 100% throughout. Moreover, the pest or weed control at 62.5 g/ha in [5] (setting [12]) is 90%; in experiment [6] (setting [12]) it was 100%.
